Results taken from BindingDB's records for doi:10.1111/cbdd.12811 (Università di Bari Aldo Moro, 2016).

What was measured:
[1] = target: ATP-dependent translocase ABCB1 (Homo sapiens, UniProt P08183); experiment: Calcein-AM Assay
Procedure: (§1) MDCK-MDR1 or MDCK-MRP1 cells (50,000 cells per well) were seeded into black CulturePlate (96-well plate) with 100 μL medium and allowed to become confluentovernight. Hundred microliters of test compounds was solubilized in culture medium and added to monolayers. 96/wells plate was incubated at 37 °C for 30 min. Calcein-AM was added in 100 μL of phosphate-buffered saline (PBS) to yield a final concentration of 2.5 μm, and plate was incubated for 30 min. Each well was washed three times with ice-cold PBS.

[2] = target: Multidrug resistance-associated protein 1 (Homo sapiens, UniProt P33527); experiment: Calcein-AM Assay
Procedure: as §1

Sequence of Multidrug resistance-associated protein 1 (P33527 whole entry): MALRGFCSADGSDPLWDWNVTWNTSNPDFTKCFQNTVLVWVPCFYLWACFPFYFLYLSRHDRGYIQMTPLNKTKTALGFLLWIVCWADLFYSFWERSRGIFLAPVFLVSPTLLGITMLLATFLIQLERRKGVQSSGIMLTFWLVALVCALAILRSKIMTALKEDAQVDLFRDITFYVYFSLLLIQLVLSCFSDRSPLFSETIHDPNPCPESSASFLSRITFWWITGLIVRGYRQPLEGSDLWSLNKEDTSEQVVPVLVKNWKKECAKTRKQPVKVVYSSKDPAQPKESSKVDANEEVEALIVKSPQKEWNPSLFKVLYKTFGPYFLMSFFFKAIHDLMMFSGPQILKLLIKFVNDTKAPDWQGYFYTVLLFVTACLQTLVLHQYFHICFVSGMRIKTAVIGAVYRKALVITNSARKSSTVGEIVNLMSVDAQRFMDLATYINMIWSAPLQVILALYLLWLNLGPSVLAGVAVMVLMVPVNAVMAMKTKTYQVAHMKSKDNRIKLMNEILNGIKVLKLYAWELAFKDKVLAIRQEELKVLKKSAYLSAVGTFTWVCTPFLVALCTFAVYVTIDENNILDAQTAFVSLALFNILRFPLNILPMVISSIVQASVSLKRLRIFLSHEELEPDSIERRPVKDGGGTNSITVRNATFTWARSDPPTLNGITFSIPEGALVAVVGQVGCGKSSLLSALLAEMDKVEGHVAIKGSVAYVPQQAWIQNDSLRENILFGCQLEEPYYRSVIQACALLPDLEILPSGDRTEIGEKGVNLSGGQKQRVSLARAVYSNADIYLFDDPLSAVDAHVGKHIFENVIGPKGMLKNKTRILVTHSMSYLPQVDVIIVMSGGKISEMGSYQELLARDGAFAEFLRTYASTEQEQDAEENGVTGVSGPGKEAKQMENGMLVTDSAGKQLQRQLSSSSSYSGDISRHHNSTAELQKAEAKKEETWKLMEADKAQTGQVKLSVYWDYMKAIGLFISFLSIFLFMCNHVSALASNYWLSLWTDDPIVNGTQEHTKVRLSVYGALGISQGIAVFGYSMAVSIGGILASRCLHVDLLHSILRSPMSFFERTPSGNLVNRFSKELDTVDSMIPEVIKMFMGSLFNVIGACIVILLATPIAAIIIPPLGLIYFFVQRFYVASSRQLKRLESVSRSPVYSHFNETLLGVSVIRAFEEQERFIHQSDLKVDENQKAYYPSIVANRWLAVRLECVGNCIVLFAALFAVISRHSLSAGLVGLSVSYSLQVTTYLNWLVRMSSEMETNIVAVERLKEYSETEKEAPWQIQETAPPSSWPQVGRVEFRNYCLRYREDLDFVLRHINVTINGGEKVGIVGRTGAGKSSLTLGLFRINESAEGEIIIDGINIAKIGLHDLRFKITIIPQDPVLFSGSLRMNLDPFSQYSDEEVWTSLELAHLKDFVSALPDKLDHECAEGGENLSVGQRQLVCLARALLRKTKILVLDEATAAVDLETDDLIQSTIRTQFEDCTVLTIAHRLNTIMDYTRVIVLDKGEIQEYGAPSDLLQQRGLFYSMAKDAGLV
Sequence of ATP-dependent translocase ABCB1 (P08183 whole entry): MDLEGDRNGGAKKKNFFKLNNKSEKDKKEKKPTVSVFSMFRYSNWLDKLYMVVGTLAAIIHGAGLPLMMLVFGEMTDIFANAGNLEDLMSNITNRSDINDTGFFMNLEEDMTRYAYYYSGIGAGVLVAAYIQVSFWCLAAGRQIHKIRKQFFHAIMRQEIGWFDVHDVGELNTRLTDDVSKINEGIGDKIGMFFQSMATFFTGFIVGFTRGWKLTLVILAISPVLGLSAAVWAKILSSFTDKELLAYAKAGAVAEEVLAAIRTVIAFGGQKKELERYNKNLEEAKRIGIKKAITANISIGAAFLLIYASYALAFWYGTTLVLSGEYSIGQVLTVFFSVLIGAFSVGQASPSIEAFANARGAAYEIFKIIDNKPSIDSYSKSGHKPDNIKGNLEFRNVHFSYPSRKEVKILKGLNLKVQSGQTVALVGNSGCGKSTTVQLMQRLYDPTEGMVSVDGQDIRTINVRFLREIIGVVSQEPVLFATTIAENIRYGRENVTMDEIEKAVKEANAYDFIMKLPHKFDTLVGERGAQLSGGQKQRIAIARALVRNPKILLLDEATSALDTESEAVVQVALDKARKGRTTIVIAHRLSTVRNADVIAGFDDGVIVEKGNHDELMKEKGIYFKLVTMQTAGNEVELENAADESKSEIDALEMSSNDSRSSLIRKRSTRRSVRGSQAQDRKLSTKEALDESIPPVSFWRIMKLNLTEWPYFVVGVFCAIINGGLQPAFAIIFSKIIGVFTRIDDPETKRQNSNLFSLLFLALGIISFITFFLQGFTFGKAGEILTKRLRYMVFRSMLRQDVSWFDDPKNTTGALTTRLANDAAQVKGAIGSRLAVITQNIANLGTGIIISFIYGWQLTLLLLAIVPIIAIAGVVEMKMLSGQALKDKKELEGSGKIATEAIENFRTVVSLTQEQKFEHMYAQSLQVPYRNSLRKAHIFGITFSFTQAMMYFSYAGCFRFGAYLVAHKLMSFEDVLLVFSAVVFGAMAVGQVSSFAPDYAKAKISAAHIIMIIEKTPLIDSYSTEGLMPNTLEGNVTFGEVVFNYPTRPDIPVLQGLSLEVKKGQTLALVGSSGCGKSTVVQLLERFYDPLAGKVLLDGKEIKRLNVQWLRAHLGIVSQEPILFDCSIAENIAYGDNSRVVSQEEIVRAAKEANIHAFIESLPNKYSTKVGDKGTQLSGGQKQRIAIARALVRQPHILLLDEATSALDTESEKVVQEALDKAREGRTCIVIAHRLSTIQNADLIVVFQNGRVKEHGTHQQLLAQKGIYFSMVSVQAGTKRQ

SMILES	IC50 [1] [µM]	IC50 [2] [µM]
COc1cc(C(=O)Nc2ccc(Br)cc2)cc(OC)c1OC	27	–
COc1ccc(C(=O)Nc2ccccc2)c(OC)c1OC [2,3,4-Trimethoxy-N-phenyl-benzamide (7)]	> 100	> 100
COc1ccccc1NC(=O)c1cc(OC)c(OC)cc1OC [2,4,5-Trimethoxy-N-(2-methoxy-phenyl)-benzamide (14)]	3.52	> 100
COc1cc(OC)c(C(=O)Nc2ccccc2)cc1OC [2,4,5-Trimethoxy-N-phenyl-benzamide (6)]	21.9	> 100
COc1cc(OC)c(C(=O)Nc2ccccc2)c(OC)c1 [2,4,6-Trimethoxy-N-phenyl-benzamide (8)]	> 100	> 100
COc1ccccc1NC(=O)c1cc(OC)c(OC)c(OC)c1 [3,4,5-Trimethoxy-N-(2-methoxy-phenyl)-benzamide (13)]	26.2	> 100
COc1cc(C(=O)Nc2ccccc2)cc(OC)c1OC [3,4,5-trimethoxy-N-phenylbenzamide (5)]	70.7	> 100
COc1cc(OC)c(C(=O)Nc2ccc(Br)cc2)cc1OC [N-(4-Bromo-phenyl)-2,4,5-trimethoxy-benzamide (10)]	9.27	> 100

Continued, values first:

IC50 [1] [µM]	IC50 [2] [µM]	SMILES
30.4	71	COc1ccccc1NC(=O)c1ccc(OC)c(OC)c1OC [2,3,4-Trimethoxy-N-(2-methoxy-phenyl)-benzamide (15)]
47.6	> 100	COc1cc(OC)c(C(=O)Nc2ccccc2OC)c(OC)c1 [2,4,6-Trimethoxy-N-(2-methoxy-phenyl)-benzamide (16)]
19.4	> 100	COc1ccc(C(=O)Nc2ccc(Br)cc2)c(OC)c1OC [N-(4-Bromo-phenyl)-2,3,4-trimethoxy-benzamide (11)]
76.2	> 100	COc1cc(OC)c(C(=O)Nc2ccc(Br)cc2)c(OC)c1 [N-(4-Bromo-phenyl)-2,4,6-trimethoxy-benzamide (12)]
